Patent publication US9040715B2 (priority 2008, dated 2015)
Converted amounts (≈) assume the structure as drawn.

Legend:
Huh7 or HepG2 cell line = experiment: MTT assay (cytotoxicity); assay type: cell-based, human; settings: 24 hours and 48 hours
How it was run: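 Huh7 or HepG2 cells seeded, incubated overnight at 37° C, 5% CO2, then exposed to compound dilutions in triplicate. Viability read after 24 and 48 h by MTT reduction (3 h at 37° C), DMSO solubilisation, absorbance at 550 nm.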

Huh7 cells = experiment: Neutral red uptake assay (cytotoxicity); assay type: cell-based, human
How it was run: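 Huh7 human hepatoma cells treated 48 hours with compounds, then 2 hours with neutral red medium. Dye extracted with acidified ethanol after washing; absorbance taken as proportional to viable cell number.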

[1] = system: Fluconazole Resistant C. albicans; experiment: microbe, parasite or virus in culture; assay type: cell-based; settings: Candida albicans
Method: (§1) The minimum inhibitory concentrations resulting in 50% growth inhibition (MIC50) of […] Candida species (C. albicans, C. tropicalis and C. glabrata, C. lusitaniae, C. parapsilosis, and C. apicola) as well as Aspergillus fumigatus to a set of novel synthetic compounds was determined in accordance with the guidelines in CLSI document M27-A2 (Clinical and Laboratory Standards Institute; Wayne, Pa.). The total volume of cells and drug was 100 μL per microtiter well, and each drug was diluted in RPMI to achieve final concentrations of 0.2-100 μg/ml. Uninoculated cultures were used as a reference standard. Stock inoculum suspensions were prepared from 24 hour cultures on YPD (yeast extract/peptone/dextrose) media at 30° C. For MIC determinations, an inoculum of 1.0×10^3 cells of Candidia and 2.0×10^3 cells of Aspergillus per well were used, and cells in diluted drugs were prepared in RPMI-1640 medium. MICs were determined both visually and spectrophotometrically at 24 hours and 48 h at 550 nm using a micro plate reader. The MIC50 endpoint was measured as the lowest drug concentration resulting in a reduction of growth of 50% or more compared with growth of the control.
(§2) The MIC50 of Compounds I-1, I-2, and I-5 in several mutant strains of Candida albicans, including fluconazole resistant clinical strains, was determined according to the methods described in Example 1 (see Table 9). The activity of Compound I-1 against fluconazole resistant strains was further explored (see Table 10). In Table 10, Strain #1 is a fluconazole sensitive Candida albicans strain; Strain #17 is a fluconazole resistant Candida albicans strain; C. albicans CS#01 is a first clinical strain; C. albicans CS#02 is a second clinical strain.

Candida apicola = experiment: Anti-fungal/anti-yeast activity: MIC50 (broth microdilution) and MFC; assay type: cell-based
How it was run: (§3)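 Broth microdilution per CLSI M27-A2 in RPMI-1640, compounds at final 0.2-100 μg/ml; inoculum 1.0×10^3 cells/well for Candida, 2.0×10^3 for Aspergillus, from 24 h YPD cultures at 30° C. Growth read visually and at 550 nm at 24 and 48 h; MIC50 = lowest concentration giving ≥50% growth reduction vs control.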

Candidia parapsilosis = experiment: as above; assay type: cell-based
How it was run: as §3

Candida lusitaniae = experiment: as above; assay type: cell-based
How it was run: as §3

Candida albicans (CAF-2) = experiment: as above; assay type: cell-based
How it was run: as §3

Candida tropicalis = experiment: as above; assay type: cell-based
How it was run: as §3

Aspergillus fumigatus = experiment: as above; assay type: cell-based
How it was run: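 Cells grown 24 h on YPD at 30° C were seeded into RPMI-1640 holding compound (0.2-100 μg/ml final) at 1.0×10^3 Candida or 2.0×10^3 Aspergillus cells per well. After 24 and 48 h, growth was scored by eye and at 550 nm. Wells from 48 h were then plated on YPD for 48 h at 30° C to obtain MFC.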

Candida glabrata = experiment: as above; assay type: cell-based
How it was run: as §3

C. albicans Mutants = experiment: MIC50 in C. albicans mutant strains; assay type: cell-based; settings: Candida albicans
Method: as §1, §2

[2] = system: Saccharomyces cerevisiae (YPH501); experiment: Anti-fungal/anti-yeast activity: MIC50 (broth microdilution) and MFC; assay type: cell-based
[3] = Saccharomyces cerevisiae (YPH501)

## CN(Cc1ccccc1)C(=O)Cn1sc2ccccc2c1=O [Compound I-1]
Huh7 or HepG2 cell line
  Toxicity to mammalian cell lines (MTT assay): minimally toxic
Huh7 cells; 3.3 μg/mL (approx 1X MIC)
  Percentage Viability: >100%
Huh7 cells; 10 μg/mL (approx 3X MIC)
  Percentage Viability: >100%
Huh7 cells; 33 μg/mL (approx 10X MIC)
  Percentage Viability: >100%
Huh7 cells; 100 μg/mL (approx 30X MIC)
  Percentage Viability: 83%
[1]; C. albicans CS#01, first clinical strain
  MIC50: 3 µg/mL (≈ 9.6 µM)
[1]; C. albicans CS#02, second clinical strain
  MIC50: 3 µg/mL (≈ 9.6 µM)
[1]; Strain #1, fluconazole sensitive Candida albicans strain
  MIC50: 3 µg/mL (≈ 9.6 µM)
[1]; Strain #17, fluconazole resistant Candida albicans strain
  MIC50: 6 µg/mL (≈ 19.2 µM)
Candida apicola; Candida apicola
  Activity (fungicidal/fungistatic): fungicidal (An MFC/MIC ratio of less than four indicates that the compound is fungicidal)
  MIC-50: 3.2 µg/mL
  Ratio MFC/MIC: 1
Candida apicola; Starmerella apicola
  MFC: 3.2 µg/mL
Candidia parapsilosis
  MFC: 3.2 µg/mL
Candidia parapsilosis; Candidia parapsilosis
  Activity (fungicidal/fungistatic): fungicidal (An MFC/MIC ratio of less than four indicates that the compound is fungicidal)
  Ratio MFC/MIC: 1
Candidia parapsilosis; read-out: MIC-50
  MIC: 3.2 µg/mL
Candida lusitaniae; Candida lusitaniae
  Activity (fungicidal/fungistatic): fungicidal (An MFC/MIC ratio of less than four indicates that the compound is fungicidal)
  Ratio MFC/MIC: 1
Candida lusitaniae; Clavispora lusitaniae
  MFC: 3.2 µg/mL
Candida lusitaniae; Clavispora lusitaniae, read-out: MIC-50
  MIC: 3.2 µg/mL
Candida albicans (CAF-2)
  Activity (fungicidal/fungistatic): fungicidal (An MFC/MIC ratio of less than four indicates that the compound is fungicidal)
  MFC: 6 µg/mL
  Ratio MFC/MIC: 2
Candida albicans (CAF-2); read-out: MIC-50
  MIC: 3.2 µg/mL
Candida tropicalis
  Activity (fungicidal/fungistatic): fungicidal (An MFC/MIC ratio of less than four indicates that the compound is fungicidal)
  MFC: 3.2 µg/mL
  Ratio MFC/MIC: 1
Candida tropicalis; read-out: MIC-50
  MIC: 3.2 µg/mL
Aspergillus fumigatus
  Activity (fungicidal/fungistatic): fungistatic (an MFC/MIC ratio of greater than four indicates that the compound is fungistatic)
  MFC: 100 µg/mL
  MIC50: 25 µg/mL
  Ratio MFC/MIC: 4
Candida glabrata; Candida glabrata
  Activity (fungicidal/fungistatic): fungicidal (An MFC/MIC ratio of less than four indicates that the compound is fungicidal)
  Ratio MFC/MIC: 2
Candida glabrata; Nakaseomyces glabratus
  MFC: 12.5 µg/mL
Candida glabrata; Nakaseomyces glabratus, read-out: MIC-50
  MIC: 6.2 µg/mL
C. albicans Mutants; C. albicans strain CAF-2
  MIC50: 3 µg/mL (≈ 9.6 µM)
C. albicans Mutants; C. albicans strain CHK11
  MIC50: 3 µg/mL (≈ 9.6 µM)
C. albicans Mutants; C. albicans strain CHK21
  MIC50: 3 µg/mL (≈ 9.6 µM)
C. albicans Mutants; C. albicans strain CHK23
  MIC50: 3 µg/mL (≈ 9.6 µM)
C. albicans Mutants; C. albicans strain GOA31
  MIC50: 6 µg/mL (≈ 19.2 µM)
C. albicans Mutants; C. albicans strain GOA32
  MIC50: 3 µg/mL (≈ 9.6 µM)
[2]; Saccharomyces cerevisiae
  MFC: 3.2 µg/mL (≈ 10.2 µM)
[2]; [3]
  Activity (fungicidal/fungistatic): fungicidal (An MFC/MIC ratio of less than four indicates that the compound is fungicidal)
  Ratio MFC/MIC: 2
[2]; Saccharomyces cerevisiae, read-out: MIC-50
  MIC: 1.6 µg/mL (≈ 5.12 µM)
